Earlier results, collected in patent publication US6447807B1, “Potassium (-)-hydroxycitric acid methods for pharmaceutical preparations for stable and controlled delivery” (priority 1999, dated 2002).

Details: single large oral dose, or two divided oral doses totaling one fourth of it; animals fed a high-sugar diet

SMILES: O=C(O)CC(O)(C(=O)O)C(O)C(=O)O (single isomer, unassigned; (-)) [HCA, (−)-Hydroxycitric acid]
- reduction in food consumption: ≥ 10%
